The values below come from patent US5130421A, “Production of 2',3'-dideoxy-2',3'-didehydronucleosides” (priority 1991, dated 1992).

In series [1] the test system is HIV. The following applies: cited from earlier work.
Series [2] has as its system HIV. The following applies: in several cell lines; cited from earlier work.
The nature of series [3]: cellular toxicity measured in CEM cells. Format: cell-based. The following applies: human, read-out: TCID50 (the 50% tissue culture inhibitory dose). The method, then:
cellular toxicity^b of AZT and d4T.
^b The cellular toxicity was measured in CEM cells.
^d The 50% tissue culture inhibitory dose.

A further series has as its system HIV (LAV strain). In words: in vitro anti-HIV efficacy (antiviral test on HIV (LAV strain)-infected CEM cells). It is filed as cell-based. The following applies: Human immunodeficiency virus 1, CCRF-CEM, read-out: ID50 (the 50% inhibitory dose). The method, then:
Comparative in vitro anti-HIV efficacy^a and
^a The antiviral test was performed on HIV (LAV strain)infected CEM
^c The 50% inhibitory dose.

For the next series, the system named is AIDS. The following applies: clinical trials, patients with AIDS; cited from earlier work.

Structures are written as SMILES. pIC50: −log10 of the molar value. Like-named read-outs stand apart in the source and are kept apart here.

Consider `Cc1cn([C@H]2C[C@H](F)[C@@H](CO)O2)c(=O)[nH]c1=O` [FDDT, 3'-fluoro-3'-deoxythymidine], for which, in the series on HIV [1], the “reported activity against HIV” value is “active against HIV”.

Take `O[C@H]1[C@H](O)[C@@H](O)CN2CC[C@H](O)[C@H]12` [castanospermine]: the “reported activity against HIV” value in the series on HIV [1] is listed as “active against HIV”.

As for `Nc1ncnc2c1ncn2[C@H]1CC[C@@H](CO)O1` [ddA, 2',3'-dideoxyadenosine], the “reported activity against HIV” value in the series on HIV [1] is “active against HIV”.

As to `Nc1ccn([C@H]2C=C[C@@H](CO)O2)c(=O)n1` [d4C, 2',3'-dideoxy-2',3'-didehydrocytidine], the “reported activity against HIV” value in the series on HIV [1] is recorded as “active against HIV”.

Consider `Nc1ccn([C@H]2CC[C@@H](CO)O2)c(=O)n1` [ddC, 2',3'-Dideoxycytidine], for which the “reported activity against HIV” value in the series with HIV [1] is given as “active against HIV”.

For the compound `Cc1cn([C@H]2C=C[C@@H](CO)O2)c(=O)[nH]c1=O` [d4T, 1-(2,3-Dideoxy-β-D-glycero-pent-2-enofuranosyl)thymine], the “in vitro activity against HIV” value in the series on HIV [2] is listed as “possesses in vitro activity against HIV in several cell lines”. Besides, the CC50 in series [3] turned out to be 39 µM. In addition, the pIC50 in the series with HIV (LAV strain) (in vitro anti-HIV efficacy, HIV (LAV strain) infected CEM cells) was 6.48.

Regarding `Cc1ccc(C(=O)Nc2ccc(S(=O)(=O)O)c3cc(S(=O)(=O)O)cc(S(=O)(=O)O)c23)cc1NC(=O)c1cccc(NC(=O)Nc2cccc(C(=O)Nc3cc(C(=O)Nc4ccc(S(=O)(=O)O)c5cc(S(=O)(=O)O)cc(S(=O)(=O)O)c45)ccc3C)c2)c1` [suramine], in the series on HIV [1], the “reported activity against HIV” value is “active against HIV”.

For the compound `NC(=O)c1ncn([C@@H]2O[C@H](CO)[C@@H](O)[C@H]2O)n1` [ribavarin], in the series on HIV [1], the “reported activity against HIV” value is “active against HIV”.

On to `O=C(O)P(=O)(O)O` [foscarnet], for which the “reported activity against HIV” value in the series on HIV [1] is “active against HIV”.

On to `CC(=O)O[C@H]1C[C@@]2(C)[C@@H](C[C@@H](O)[C@H]3[C@@]4(C)CC[C@@H](O)[C@@H](C)[C@@H]4CC[C@@]32C)/C1=C(\CCC=C(C)C)C(=O)O` [fusidic acid], for which, in the series on HIV [1], the “reported activity against HIV” value is “active against HIV”.

As for `Cc1cn([C@H]2C[C@H](N=[N+]=[N-])[C@@H](CO)O2)c(=O)[nH]c1=O` [AZT, 3'-azido-3'-deoxythymidine], the “efficacy in the treatment of AIDS” value in the series with AIDS is given as “efficacious agent in the treatment of AIDS in clinical trials”. In addition, the CC50 in series [3] is 54 µM. Besides, the pIC50 with HIV (LAV strain) is 6.35.

With `CC(C)(S)[C@@H](N)C(=O)O` [d-penicillamine], in the series with HIV [1], the “reported activity against HIV” value was “active against HIV”.
